The values below come from ChEMBL document CHEMBL2062390, “3-Phenyl-1H-5-pyrazolylamine-based derivatives as potent and efficacious inhibitors of FMS-like tyrosine kinase-3 (FLT3)” (Bioorg Med Chem Lett, 2012).

The structures appear in SMILES notation.

The target of assay [1] is T1, Receptor-type tyrosine-protein kinase FLT3 (Homo sapiens, UniProt P36888).
T1 sequence (P36888 whole entry): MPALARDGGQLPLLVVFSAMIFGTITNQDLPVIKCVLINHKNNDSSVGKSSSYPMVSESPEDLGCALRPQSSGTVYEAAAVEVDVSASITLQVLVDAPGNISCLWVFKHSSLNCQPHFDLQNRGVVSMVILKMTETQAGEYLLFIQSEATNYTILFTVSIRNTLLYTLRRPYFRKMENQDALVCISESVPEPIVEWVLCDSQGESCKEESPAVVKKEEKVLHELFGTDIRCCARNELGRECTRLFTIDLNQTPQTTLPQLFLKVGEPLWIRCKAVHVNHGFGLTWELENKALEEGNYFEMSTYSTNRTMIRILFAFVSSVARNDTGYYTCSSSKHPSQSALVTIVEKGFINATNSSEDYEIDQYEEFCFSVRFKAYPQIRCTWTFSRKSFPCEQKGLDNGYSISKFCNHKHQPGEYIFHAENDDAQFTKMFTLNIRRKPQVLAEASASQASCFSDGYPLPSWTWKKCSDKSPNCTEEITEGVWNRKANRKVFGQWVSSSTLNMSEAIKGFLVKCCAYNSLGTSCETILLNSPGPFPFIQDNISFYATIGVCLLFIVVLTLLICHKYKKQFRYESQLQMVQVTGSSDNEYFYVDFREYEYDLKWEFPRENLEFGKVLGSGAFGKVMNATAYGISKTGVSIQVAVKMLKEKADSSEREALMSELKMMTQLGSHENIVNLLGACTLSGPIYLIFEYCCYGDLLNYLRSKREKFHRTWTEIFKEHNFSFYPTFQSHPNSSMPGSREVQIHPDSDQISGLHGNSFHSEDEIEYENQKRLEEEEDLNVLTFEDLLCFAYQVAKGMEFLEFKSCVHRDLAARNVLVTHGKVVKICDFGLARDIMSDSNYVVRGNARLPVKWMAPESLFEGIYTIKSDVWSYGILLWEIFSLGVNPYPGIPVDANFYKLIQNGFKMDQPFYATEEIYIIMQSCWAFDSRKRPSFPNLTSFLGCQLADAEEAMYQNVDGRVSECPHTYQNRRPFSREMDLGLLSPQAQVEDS
Description: Inhibition of wild type FLT3

The target in assay [2] is Vascular endothelial growth factor receptor 2 (Homo sapiens, UniProt P35968).
Vascular endothelial growth factor receptor 2, sequence (P35968 whole entry): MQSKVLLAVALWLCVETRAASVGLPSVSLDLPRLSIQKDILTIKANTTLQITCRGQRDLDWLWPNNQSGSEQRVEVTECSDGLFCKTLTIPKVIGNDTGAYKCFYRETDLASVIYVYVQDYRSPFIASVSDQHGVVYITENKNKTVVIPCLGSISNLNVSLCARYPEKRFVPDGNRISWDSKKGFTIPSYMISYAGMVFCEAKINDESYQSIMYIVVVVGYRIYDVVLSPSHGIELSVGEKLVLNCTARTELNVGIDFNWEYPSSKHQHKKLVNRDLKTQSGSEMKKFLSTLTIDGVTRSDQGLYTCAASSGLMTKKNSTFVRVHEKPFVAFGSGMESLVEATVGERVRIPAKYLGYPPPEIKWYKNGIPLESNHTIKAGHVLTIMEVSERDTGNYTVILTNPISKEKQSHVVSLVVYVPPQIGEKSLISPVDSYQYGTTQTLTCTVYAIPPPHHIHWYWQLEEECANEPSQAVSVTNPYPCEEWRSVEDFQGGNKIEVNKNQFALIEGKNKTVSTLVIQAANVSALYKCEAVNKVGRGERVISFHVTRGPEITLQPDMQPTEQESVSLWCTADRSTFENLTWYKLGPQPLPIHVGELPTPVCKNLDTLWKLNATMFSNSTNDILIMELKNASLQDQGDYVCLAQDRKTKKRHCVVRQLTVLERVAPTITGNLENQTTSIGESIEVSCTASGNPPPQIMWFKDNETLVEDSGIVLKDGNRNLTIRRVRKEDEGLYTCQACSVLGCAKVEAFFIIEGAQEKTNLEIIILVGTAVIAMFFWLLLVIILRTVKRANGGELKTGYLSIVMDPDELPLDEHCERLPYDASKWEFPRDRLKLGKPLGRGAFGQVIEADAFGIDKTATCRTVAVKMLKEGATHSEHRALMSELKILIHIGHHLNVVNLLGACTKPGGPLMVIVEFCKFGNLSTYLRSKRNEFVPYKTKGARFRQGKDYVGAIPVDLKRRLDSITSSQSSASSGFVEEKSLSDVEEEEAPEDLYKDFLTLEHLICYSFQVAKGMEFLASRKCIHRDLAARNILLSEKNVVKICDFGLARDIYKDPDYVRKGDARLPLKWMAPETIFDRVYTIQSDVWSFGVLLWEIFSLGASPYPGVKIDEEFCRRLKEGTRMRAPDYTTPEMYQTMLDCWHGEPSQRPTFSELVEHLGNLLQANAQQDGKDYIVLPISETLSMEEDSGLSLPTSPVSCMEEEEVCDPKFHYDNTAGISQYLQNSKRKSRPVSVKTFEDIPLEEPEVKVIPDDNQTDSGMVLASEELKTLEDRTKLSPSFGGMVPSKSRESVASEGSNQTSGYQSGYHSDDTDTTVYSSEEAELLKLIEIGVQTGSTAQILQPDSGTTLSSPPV
Assay [3] has as its target Vascular endothelial growth factor receptor 1 (Homo sapiens, UniProt P17948).
Assay [4] concerns the target T2, Aurora kinase A (Homo sapiens, UniProt O14965).
T2 sequence (O14965 whole entry): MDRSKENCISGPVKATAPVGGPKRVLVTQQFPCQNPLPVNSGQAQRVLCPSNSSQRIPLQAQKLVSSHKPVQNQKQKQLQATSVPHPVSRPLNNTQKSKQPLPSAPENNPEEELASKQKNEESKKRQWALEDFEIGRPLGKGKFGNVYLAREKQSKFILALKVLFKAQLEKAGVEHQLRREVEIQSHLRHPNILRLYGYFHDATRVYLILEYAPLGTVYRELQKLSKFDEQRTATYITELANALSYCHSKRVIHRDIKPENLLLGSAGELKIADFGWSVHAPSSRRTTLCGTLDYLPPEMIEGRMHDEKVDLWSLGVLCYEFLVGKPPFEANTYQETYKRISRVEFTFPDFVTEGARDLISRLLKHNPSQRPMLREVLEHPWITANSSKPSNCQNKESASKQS

The subject of assay [5] is MOLM-13. Nature of the assay: cells. The conditions noted are these: Homo sapiens.
Description: Antiproliferative activity against human MOLM13 cells expressing FLT3-ITD mutant

Vascular endothelial growth factor receptor 1, sequence (P17948 whole entry): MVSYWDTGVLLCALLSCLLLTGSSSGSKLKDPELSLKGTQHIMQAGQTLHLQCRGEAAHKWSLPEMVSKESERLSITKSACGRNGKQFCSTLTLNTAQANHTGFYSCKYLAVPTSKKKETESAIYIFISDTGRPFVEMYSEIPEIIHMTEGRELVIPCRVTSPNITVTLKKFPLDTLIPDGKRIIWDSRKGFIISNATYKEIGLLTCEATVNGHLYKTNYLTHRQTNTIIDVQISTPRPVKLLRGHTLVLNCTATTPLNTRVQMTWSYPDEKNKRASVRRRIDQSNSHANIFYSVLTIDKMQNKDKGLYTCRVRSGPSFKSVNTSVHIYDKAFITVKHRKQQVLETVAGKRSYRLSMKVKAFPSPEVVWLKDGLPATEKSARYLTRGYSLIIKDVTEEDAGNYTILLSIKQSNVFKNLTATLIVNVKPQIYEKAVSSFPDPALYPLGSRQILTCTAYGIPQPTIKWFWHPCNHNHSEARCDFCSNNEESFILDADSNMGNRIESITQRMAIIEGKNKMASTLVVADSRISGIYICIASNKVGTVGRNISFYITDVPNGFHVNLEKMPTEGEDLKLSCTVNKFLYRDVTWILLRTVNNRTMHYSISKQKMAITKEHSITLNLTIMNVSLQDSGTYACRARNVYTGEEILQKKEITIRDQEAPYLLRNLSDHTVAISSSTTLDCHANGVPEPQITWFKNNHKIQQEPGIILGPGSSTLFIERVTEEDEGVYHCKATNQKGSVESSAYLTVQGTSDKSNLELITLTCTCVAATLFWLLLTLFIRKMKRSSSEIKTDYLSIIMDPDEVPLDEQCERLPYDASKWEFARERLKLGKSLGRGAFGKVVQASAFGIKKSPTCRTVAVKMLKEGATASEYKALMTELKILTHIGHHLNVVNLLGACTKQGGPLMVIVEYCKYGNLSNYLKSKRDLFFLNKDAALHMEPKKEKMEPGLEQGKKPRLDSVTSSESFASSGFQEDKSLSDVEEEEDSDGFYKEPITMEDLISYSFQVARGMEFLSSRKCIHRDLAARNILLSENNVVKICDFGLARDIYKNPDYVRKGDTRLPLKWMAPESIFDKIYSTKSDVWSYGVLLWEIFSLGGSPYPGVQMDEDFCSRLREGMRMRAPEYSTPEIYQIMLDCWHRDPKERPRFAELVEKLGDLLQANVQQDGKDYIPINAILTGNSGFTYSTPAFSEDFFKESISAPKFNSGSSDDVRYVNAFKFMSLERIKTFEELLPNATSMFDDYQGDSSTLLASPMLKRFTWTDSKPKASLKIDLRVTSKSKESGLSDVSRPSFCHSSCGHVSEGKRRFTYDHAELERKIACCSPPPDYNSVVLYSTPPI

Take `O=C(Nc1ccc(-c2cc(NC(=O)c3ccc(OCCN4CCCC4)cc3)[nH]n2)cc1)Oc1ccccc1`: the half-maximal inhibitory concentration (IC50) is 0.04 µM in assay [1], 0.3 µM in assay [2], over 1 µM in assay [3] and over 1 µM in assay [4]. In addition, the GI50 in assay [5] came out at 0.047 µM.

In the case of `O=C(NCc1ccc(-c2cc(NC(=O)c3ccc(OCCN4CCOCC4)cc3)[nH]n2)cc1)OCc1cccnc1`, the 50% inhibitory concentration (IC50) is 0.02 µM in assay [1], over 1 µM in assay [2], over 1 µM in assay [3] and over 1 µM in assay [4]. This compound showed a GI50 in assay [5] of 0.007 µM.

With `CCOC(=O)NCc1ccc(-c2cc(NC(=O)c3ccc(N4CCN(C)CC4)cc3)[nH]n2)cc1`, the IC50 in assay [1] was 0.017 µM; in assay [2] it was 0.56 µM; in assay [3] it was over 1 µM; in assay [4], over 1 µM. Moreover, in assay [5], the concentration for 50% growth inhibition (GI50) amounted to 0.048 µM.

In the case of `CN1CCN(c2ccc(C(=O)Nc3cc(-c4ccc(CNC(=O)Oc5ccccc5)cc4)n[nH]3)cc2)CC1`, the IC50 in assay [1] is 0.016 µM; in assay [2], 0.092 µM; in assay [3] it was 0.054 µM; in assay [4], over 1 µM. Besides, in assay [5], halving of growth (GI50) required 0.02 µM.

For the compound `Cc1cc(COC(=O)NCc2ccc(-c3cc(NC(=O)c4ccc(N5CCN(C)CC5)cc4)[nH]n3)cc2)no1`, the IC50 in assay [1] is 0.027 µM; in assay [2] it was 0.37 µM; in assay [3] it was 0.35 µM; in assay [4], over 1 µM. Moreover, halving of growth in assay [5] (GI50) required 0.001 µM.

As for `Cc1nc(Nc2cc(-c3ccc(CNC(=O)OCc4ccccc4)cc3)n[nH]2)cc(N2CCN(C)CC2)n1`, the half-inhibitory concentration (IC50) in assay [1] was determined as 0.018 µM; in assay [2], 0.31 µM; in assay [3] it was 0.42 µM; in assay [4], 0.43 µM. The compound also showed a concentration for 50% growth inhibition (GI50) in assay [5] of 0.002 µM.

For `CN1CCN(c2ccc(C(=O)Nc3cc(-c4ccc(NC(=O)OCc5ccccc5)cc4)n[nH]3)cc2)CC1`, the IC50 in assay [1] is 0.007 µM; in assay [2], 0.048 µM; in assay [3], 0.2 µM; in assay [4], over 1 µM. For the same compound, the 50% growth inhibitory concentration (GI50) in assay [5] was found to be 0.016 µM.

Consider `CN1CCN(c2ccc(C(=O)Nc3cc(-c4ccc(CNS(=O)(=O)c5ccccc5)cc4)n[nH]3)cc2)CC1`, for which the IC50 in assay [1] is 0.14 µM; in assay [2], over 1 µM; in assay [3], over 1 µM; in assay [4] it was 1 µM. In addition, the GI50 in assay [5] was 0.047 µM.

As to `CN1CCN(Cc2ccc(C(=O)Nc3cc(-c4ccc(CNC(=O)OCc5ccccc5)cc4)n[nH]3)cc2)CC1`, the IC50 in assay [1] was 0.007 µM; in assay [2] it was 0.17 µM; in assay [3], 0.32 µM; in assay [4], over 1 µM. Besides, in assay [5], it took 0.004 µM to inhibit growth by half (GI50).

For `Cc1nc(Nc2cc(-c3ccc(CNC(=O)OCc4cccnc4)cc3)n[nH]2)cc(N2CCN(C)CC2)n1`, the half-maximal inhibitory concentration (IC50) is 0.004 µM in assay [1], over 1 µM in assay [2], over 1 µM in assay [3] and over 1 µM in assay [4]. The same compound returned a concentration for 50% growth inhibition (GI50) in assay [5] of 0.002 µM.

With `Cc1nc(Nc2cc(-c3ccc(CNC(=O)OCc4ccccc4)cc3)n[nH]2)cc(N2CCNCC2)n1`, the IC50 in assay [1] turned out to be 0.017 µM; in assay [2], 0.19 µM; in assay [3] it was 0.082 µM; in assay [4], 0.35 µM. Also, the 50% growth inhibitory concentration (GI50) in assay [5] worked out at 0.006 µM.

Turning to `O=C(NCc1ccc(-c2cc(NC(=O)c3ccc(OCCN4CCOCC4)cc3)[nH]n2)cc1)OCc1ccccc1`, the IC50 in assay [1] came out at 0.017 µM; in assay [2], 0.37 µM; in assay [3], 0.37 µM; in assay [4], 0.59 µM. In assay [5], this compound returned a concentration for 50% growth inhibition (GI50) of 0.008 µM.

On to `CN1CCN(c2ccc(C(=O)Nc3cc(-c4ccc(NC(=O)Oc5ccccc5)cc4)n[nH]3)cc2)CC1`, for which the IC50 in assay [1] is 0.012 µM; in assay [2], 0.18 µM; in assay [3], 0.32 µM; in assay [4], over 1 µM. Further, in assay [5], growth was halved (GI50) at 0.005 µM.

As to `CN1CCN(c2ccc(C(=O)Nc3cc(-c4ccc(NS(=O)(=O)c5ccccc5)cc4)n[nH]3)cc2)CC1`, the IC50 in assay [2], in assay [3] and in assay [4] was over 1 µM each time. In assay [5], this compound registered a concentration for 50% growth inhibition (GI50) of 0.5 µM.

As a reminder, the IC50 is the concentration needed to halve the response being measured. As a reminder, the GI50 is the concentration giving 50% growth inhibition. The low end stands for greater sensitivity of the cells, the high end for lower sensitivity of the cells.
